Key:
Assay type in all cases: cell-based, human
LNCaP cells = test: dose-response cell viability assay; details: Enzalutamide-naïve and Enzalutamide-resistant conditions, varying doses, dose-dependent
Procedure: (§1) FIGS. 22A and 22B show MYC inhibition reduces viability and colony formation in Enzalutamide resistant conditions. (FIG. 22A) Drug response curves of Enzalutamide naïve LNCaP or Enzalutamide-resistant LNCaP cells treated with Enzalutamide and/or MYC-i975. (FIG. 22B) Colony formation assay using Enzalutamide-resistant LNCaP cells t(LNCaP-Enza-Res) in intact (treated with DMSO), treated with enzalutamide (10 μM), MYC-i975 (2 μM), or a combination of Enzalutamide+MYC-i975 (10 μM+2 μM). Cells were grown in the presence of respective drugs. Bars represent quantification of Crystal Violet trapped by migrated cells. P-value is estimated utilizing one-tailed Welch t-test. * p<0.05, *** p≤0.001.
(§2) Generation of Enzalutamide-resistant cell lines: LNCaP (clone FDG) and C42B cells were purchased from ATCC and were grown in RPMI1640 media (GIBCO # 11875093) supplemented with 10% Fetal Bovine Serum (FBS, Corning Cat#35-011-CV) and maintained at […] in and 5% CO2. Enzalutamide powder was purchased from Sellekchem (cat #S1250) and re-suspended in DMSO. Cells were plated in 6 well plates and treated either with DMSO, or with Enzalutamide (20 uM), refreshed every 4 days for up to 3 months until the resistance emerged. RNA from cells was extracted on indicated days using the methods described below. […]

C42B cells = test: dose-response cell viability assay; details: Enzalutamide-naïve and Enzalutamide-resistant conditions, varying doses, dose-dependent
Procedure: (§3) FIGS. 21A-21F show MYC targeting is beneficial for patients in Enzalutamide-resistant conditions. (FIG. 21A) Drug sensitivity curves of Enzalutamide-naïve, or Enzalutamide-resistant (EnzaRes) C42B cells treated with MYCi975. (FIG. 21B) Colony formation assay using Enzalutamide-resistant (EnzaRes) C42B cells in Intact (treated with DMSO), treated with Enzalutamide (10 μM), MYCi975 (2 μM), or a combination of Enzalutamide+MYCi975 (10 μM+2 μM). Cells were grown in the presence of respective drugs. Representative images are shown. P-value was estimated using a one-tailed Welch t-test. (FIG. 21C) Boyden chamber-based in vitro migration assay using Enzalutamide-resistant (EnzaRes) C42B cells in Intact (treated with DMSO), treated with Enzalutamide (10 μM), MYCi975 (2 μM), or a combination of Enzalutamide+MYCi975 (10 μM+2 μM). Bars represent the quantification of Crystal Violet trapped by migrated cells. P-value was estimated using a one-tailed Welch t-test. (FIG. 21D) Expression of NME2 in Intact and Enzalutamide-resistant (EnzaRes) C42B cells, using the qRT-PCR. P-value was estimated using the one-tailed Welch t-test. […] Bars represent the quantification of Crystal Violet trapped by migrated cells. * p-value<0.05, ** p-value≤0.01, *** p-value≤0.001 […]

LNCaP-EnzaRes cells = test: colony formation assay; details: MYCi975 2 μM, Enzalutamide 10 μM, compared to Intact (DMSO)
Procedure: as §1, §2

C42B-EnzaRes cells [1] = test: colony formation assay; details: MYCi975 2 μM, Enzalutamide 10 μM, compared to Intact (DMSO)
Procedure: as §3

C42B-EnzaRes cells [2] = test: Boyden chamber-based in vitro migration assay; details: for cell migration with NME2 knockdown added: C42B-EnzaRes cells with knockdown of NME2
Procedure: FIGS. 21A-21F show MYC targeting is beneficial for patients in Enzalutamide-resistant conditions. (FIG. 21A) Drug sensitivity curves of Enzalutamide-naïve, or Enzalutamide-resistant (EnzaRes) C42B cells treated with MYCi975. (FIG. 21B) Colony formation assay using Enzalutamide-resistant (EnzaRes) C42B cells in Intact (treated with DMSO), treated with Enzalutamide (10 μM), MYCi975 (2 μM), or a combination of Enzalutamide+MYCi975 (10 μM+2 μM). Cells were grown in the presence of respective drugs. Representative images are shown. P-value was estimated using a one-tailed Welch t-test. (FIG. 21C) Boyden chamber-based in vitro migration assay using Enzalutamide-resistant (EnzaRes) C42B cells in Intact (treated with DMSO), treated with Enzalutamide (10 μM), MYCi975 (2 μM), or a combination of Enzalutamide+MYCi975 (10 μM+2 μM). Bars represent the quantification of Crystal Violet trapped by migrated cells. P-value was estimated using a one-tailed Welch t-test. (FIG. 21D) Expression of NME2 in Intact and Enzalutamide-resistant (EnzaRes) C42B cells, using the qRT-PCR. P-value was estimated using the one-tailed Welch t-test. (FIG. 21E) Two different siRNAs targeting NME2 were used to downregulate NME2 (left panel) and its effect on MYC expression using qRT-PCR is shown (right panel). (FIG. 21F) Boyden chamber-based in vitro migration assay using Enzalutamide-resistance (EnzaRes) C42B cells in Intact (treated with DMSO) or treated with a combination of Enzalutamide+MYCi975 (10 μM+2 μM) with or without knockdown of NME2. Bars represent the quantification of Crystal Violet trapped by migrated cells. * p-value<0.05, ** p-value≤0.01, *** p-value≤0.001

MYC = test: doxycycline-inducible shRNA knockdown of NME2, Western blot; details: C4-2B cells, 0-2000 ng/mL doxycycline for 96 hours
Procedure: Finally, C4-2B cells expressing doxycycline-inducible shRNA targeting NME2 were generated using the targeting sequence […] (SEQ ID NO: 9). Cells were treated with 0-2000 ng/mL doxycycline for 96 hours and NME2 and MYC expression were evaluated by Western blot.

Compound | cell viability (LNCaP cells) | cell viability (C42B cells) | colony formation (LNCaP-EnzaRes cells) | colony formation (C42B-EnzaRes cells [1]) | cell migration with NME2 knockdown added (C42B-EnzaRes cells [2]) | cell migration (C42B-EnzaRes cells [2]; C42B-EnzaRes cells, MYCi975 2 μM, Enzalutamide 10 μM, compared to Intact (DMSO)) | MYC expression (MYC)
Cn1nc(C(F)(F)F)cc1-c1ccc(OCc2ccc(Cl)cc2)c(-c2ccc(Cl)c(C(F)(F)F)c2)c1O [MYCi975] | striking reduction of the cell viability | striking reduction of the cell viability | reduced the colony formation | reduced the colony formation | further reduced | significant reduction in cell migration | 
CNC(=O)c1ccc(N2C(=S)N(c3ccc(C#N)c(C(F)(F)F)c3)C(=O)C2(C)C)cc1F [Enzalutamide] |  |  |  |  | low metastatic capability |  | 
shRNA targeting NME2: doxycycline-inducible shRNA targeting NME2, targeting sequence GAAATCAGCCTATGGTTTAAG (SEQ ID NO: 9) |  |  |  |  |  |  | suppresses MYC expression

From US20230326554A1, “IDENTIFYING TREATMENT RESPONSE SIGNATURES” (Rutgers, The State University of New Jersey, priority 2022, published 2023)
